{
  "source": "PubChem BioAssay AID2060902",
  "about": "(Molecular Pharmacology Branch, DTP, NCI, 2025);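 further: spheroids exposed to agents for seven days before readout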",
  "tested_on": "485368-065-R3-J5-PDC spheroids with HUVEC/MSC, viability",
  "test": "Anticancer human tumor 485368-065-R3-J5-PDC patient-derived pancreatic carcinoma cell line growth inhibition [RAS]",
  "conditions": "for IC50: curve of first compound; for viability, T/C: stronger effect = lower value",
  "source_text": "RAS pathway inhibitors in Combinations in Complex Spheroids\nA high-throughput screen of multi-cell type tumor spheroids was designed to identify active combinations of RAS pathway inhibitors and targeted small molecules. Complex spheroids include a stromal component modeled by human endothelial cells (HUVEC) and fibroblasts modeled by human mesenchymal stem cells (MSCs). The concentration ranges selected for each drug and investigational agent were based upon clinically achievable concentrations if the clinical Cmax of the agent was known.\nCompounds. The drugs and investigational agents: abemaciclib (NSC768073), cobimetinib (NSC768068), divarasib (GDC6063, NSC841802), docetaxel (NSC628503), GDC-1971 (RLY-1971, NSC841576), gemcitabine (NSC613327), inavolisib (NSC800729), ipatasertib (NSC767898), KB-0742 (NSC834161), MRTX-1133 (NSC836407), osimertinib (NSC779217), RMC-4630 (NSC839698), RMC-6236 (NSC851965), RMC-6291 (NSC852671), Ro-3306 (NSC812927), sapanisertib (NSC764658), SN-38 (NSC673596), staurosporine (NSC755774), SY5609 (NSC837396), and tovorafenib (DAY101, NSC766906), were obtained from the National Cancer Institute (NCI) Developmental Therapeutics Program Chemical Repository. The FDA-approved anticancer drug set is available from the NCI Developmental Therapeutics Program. […] The stock solutions were prepared in dimethyl sulfoxide (DMSO, Sigma-Aldrich, St. Louis, MO, cat. D2650) at 800-fold the tested concentration and stored at -70 degrees C prior to their use. All drugs and investigational agents were tested over a range starting from a high concentration at or near the clinical Cmax and decreasing in half-log increments. If the clinical Cmax for an agent had not been determined, the highest concentration tested was 10 microM.\nCell Culture. All cells were maintained in an incubator at 37 degrees C and 5% CO2 with 95% humidity. The PDC lines were cultured according to standard operating procedures established by the NCI PDMR. All PDCs were thawed and cultured in Matrigel-coated flasks prepared with a working solution of 1X Ham's F-12 nutrient mix, without supplementation (Invitrogen, Waltham, MA, cat. 11765054), 100 U/mL penicillin-streptomycin (Invitrogen, cat. 15140122), and 2.5% Matrigel (Corning Inc., Corning, NY, cat. 354248) for the first three passages. The 362531-283-R-J2-PDC and 782815-120-R-J1-PDC lines were cultured in 6C/Colon 1B media, which includes advanced DMEM/F-12 (Thermo Fisher Scientific, cat. 12634028), 10 mM HEPES (Thermo Fisher Scientific, cat. 15630080), 1X GlutaMAX supplement (Thermo Fisher Scientific, cat. 35050061), 0.1 mg/mL primocin (InvivoGen, San Diego, CA, cat. ant-pm-2), 10% defined fetal bovine serum, heat inactivated (HyClone Laboratories Inc., Logan, UT, cat. SH30070.03HI), 50% L-WRN conditioned media (ATCC, cat. CRL-3276), 1.25 mM N-Acetyl-L-cysteine (Sigma-Aldrich, cat. A9165), 10 mM nicotinamide (Sigma-Aldrich, cat. N0636), 1X B-27 supplement (Thermo Fisher Scientific, cat. 17504044), 1X N-2 supplement (Thermo Fisher Scientific, cat. 17502048), 50 ng/mL human EGF (Thermo Fisher Scientific, cat. PHG0311), and 10 microM Y-27632 dihydrochloride (Tocris Bioscience, cat. 1254). The K12877-001-R-J1-PDC line was cultured in 6I media, which includes all 6C/Colon 1B media plus 10 ng/mL human FGF-10 (PeproTech, cat. 100-26), 1 ng/mL human FGF-2 (PeproTech, cat. 100-18B), 1 µM prostaglandin E2 (Tocris Bioscience, cat. 2296), […] hydrocortisone (Sigma-Aldrich, cat. H4001), and […] bovine insulin (Sigma-Aldrich, cat. I6634). The K86415-001-R-J1-PDC line was cultured in 6D media, which includes all 6C/Colon 1B media components minus the L-WRN conditioned media. The 485176-168-R4-J1-PDC was cultured in PANC media, which includes all 6C/Colon 1B media plus 100 ng/mL human FGF-10 (PeproTech, cat. 100-26), 500 nM SB-431542 (Selleckchem, cat. S1067), and 10 nM gastrin (Tocris Bioscience, cat. 3006). […]",
  "data": [
    {"smiles": "CC(C)NCC(C(=O)N1CCN(c2ncnc3c2C(C)CC3O)CC1)c1ccc(Cl)cc1", "note": "(configuration not stated) + C#Cc1c(F)ccc2cc(O)cc(-c3ncc4c(N5CC6CCC(C5)N6)nc(OCC56CCCN5CC(F)C6)nc4c3F)c12", "values": [
      {"measurement": "IC50", "setting": "second compound 0.0316 µM", "result": "> 10", "unit": "µM"},
      {"measurement": "IC50", "setting": "second compound 0.1 µM", "result": "> 10", "unit": "µM"},
      {"measurement": "IC50", "setting": "second compound 0.316 µM", "result": "> 10", "unit": "µM"},
      {"measurement": "IC50", "setting": "second compound 1 µM", "result": 8.24, "unit": "µM"},
      {"measurement": "IC50", "setting": "second compound 3.16 µM", "result": 4.34, "unit": "µM"},
      {"measurement": "IC50", "setting": "second compound 10 µM", "result": "< 0.0316", "unit": "µM"},
      {"measurement": "viability, T/C", "setting": "second compound 0.0316 µM, first compound 0.0316 µM", "result": 116, "unit": "%"},
      {"measurement": "viability, T/C", "setting": "second compound 0.0316 µM, first compound 0.1 µM", "result": 98.7, "unit": "%"},
      {"measurement": "viability, T/C", "setting": "second compound 0.0316 µM, first compound 0.316 µM", "result": 89.3, "unit": "%"},
      {"measurement": "viability, T/C", "setting": "second compound 0.0316 µM, first compound 1 µM", "result": 93.5, "unit": "%"},
      {"measurement": "viability, T/C", "setting": "second compound 0.0316 µM, first compound 3.16 µM", "result": 77.1, "unit": "%"},
      {"measurement": "viability, T/C", "setting": "second compound 0.0316 µM, first compound 10 µM", "result": 57.8, "unit": "%"},
      {"measurement": "viability, T/C", "setting": "second compound 0.1 µM, first compound 0.0316 µM", "result": 101, "unit": "%"},
      {"measurement": "viability, T/C", "setting": "second compound 0.1 µM, first compound 0.1 µM", "result": 88.8, "unit": "%"},
      {"measurement": "viability, T/C", "setting": "second compound 0.1 µM, first compound 0.316 µM", "result": 90.3, "unit": "%"},
      {"measurement": "viability, T/C", "setting": "second compound 0.1 µM, first compound 1 µM", "result": 83.3, "unit": "%"},
      {"measurement": "viability, T/C", "setting": "second compound 0.1 µM, first compound 3.16 µM", "result": 77.2, "unit": "%"},
      {"measurement": "viability, T/C", "setting": "second compound 0.1 µM, first compound 10 µM", "result": 57.9, "unit": "%"},
      {"measurement": "viability, T/C", "setting": "second compound 0.316 µM, first compound 0.0316 µM", "result": 99, "unit": "%"},
      {"measurement": "viability, T/C", "setting": "second compound 0.316 µM, first compound 0.1 µM", "result": 101, "unit": "%"},
      {"measurement": "viability, T/C", "setting": "second compound 0.316 µM, first compound 0.316 µM", "result": 93.9, "unit": "%"},
      {"measurement": "viability, T/C", "setting": "second compound 0.316 µM, first compound 1 µM", "result": 87.9, "unit": "%"},
      {"measurement": "viability, T/C", "setting": "second compound 0.316 µM, first compound 3.16 µM", "result": 71.2, "unit": "%"},
      {"measurement": "viability, T/C", "setting": "second compound 0.316 µM, first compound 10 µM", "result": 55, "unit": "%"},
      {"measurement": "viability, T/C", "setting": "second compound 1 µM, first compound 0.0316 µM", "result": 104, "unit": "%"},
      {"measurement": "viability, T/C", "setting": "second compound 1 µM, first compound 0.1 µM", "result": 106, "unit": "%"},
      {"measurement": "viability, T/C", "setting": "second compound 1 µM, first compound 0.316 µM", "result": 93.5, "unit": "%"},
      {"measurement": "viability, T/C", "setting": "second compound 1 µM, first compound 1 µM", "result": 74.9, "unit": "%"},
      {"measurement": "viability, T/C", "setting": "second compound 1 µM, first compound 3.16 µM", "result": 61.9, "unit": "%"},
      {"measurement": "viability, T/C", "setting": "second compound 1 µM, first compound 10 µM", "result": 47, "unit": "%"},
      {"measurement": "viability, T/C", "setting": "second compound 3.16 µM, first compound 0.0316 µM", "result": 73.7, "unit": "%"},
      {"measurement": "viability, T/C", "setting": "second compound 3.16 µM, first compound 0.1 µM", "result": 74, "unit": "%"},
      {"measurement": "viability, T/C", "setting": "second compound 3.16 µM, first compound 0.316 µM", "result": 75.2, "unit": "%"},
      {"measurement": "viability, T/C", "setting": "second compound 3.16 µM, first compound 1 µM", "result": 70.8, "unit": "%"},
      {"measurement": "viability, T/C", "setting": "second compound 3.16 µM, first compound 3.16 µM", "result": 54.2, "unit": "%"},
      {"measurement": "viability, T/C", "setting": "second compound 3.16 µM, first compound 10 µM", "result": 38.9, "unit": "%"},
      {"measurement": "viability, T/C", "setting": "second compound 10 µM, first compound 0.0316 µM", "result": 44.1, "unit": "%"},
      {"measurement": "viability, T/C", "setting": "second compound 10 µM, first compound 0.1 µM", "result": 39.4, "unit": "%"},
      {"measurement": "viability, T/C", "setting": "second compound 10 µM, first compound 0.316 µM", "result": 40.3, "unit": "%"},
      {"measurement": "viability, T/C", "setting": "second compound 10 µM, first compound 1 µM", "result": 35.4, "unit": "%"},
      {"measurement": "viability, T/C", "setting": "second compound 10 µM, first compound 3.16 µM", "result": 35.3, "unit": "%"},
      {"measurement": "viability, T/C", "setting": "second compound 10 µM, first compound 10 µM", "result": 26.9, "unit": "%"}
    ]}
  ]
}
